Results on 1 substance are retold here after US20070093539A1, “N-hydroxy-4-(3-pheyl-5-methyl-isoxazole-4-yl)-benzenesulfonate solvates” (priority 2003, published 2007).

For test [1], the system named is carrageenan induced inflammatory hyperalgesia. Briefly: Carrageenan induced inflammatory hyperalgesia (Randall-Selitto), acute model. Format: in vivo, male SPRD rats. The note with it: Acut model, 10 mg/kg p.o. On the procedure:
Edema was induced by injection of Carrageenan (CA) into plantar surface of right hind paw. Male SPRD rats (weighing 140-190 g) were used n=6-8/group). Then the mechanical pain threshold of the inflamed hind paw was determined with an analgesimeter ((Ugo Basile, type: 37215).
This assay monitors the decrease of the pain threshold, and the time depending changing of the pain by mechanical pain stimulus. Analgesics can increase the pain threshold of the inflamed hinds and this effect is in terms of percentage of reversal.
Untreated right hind paw was compressed with a progressively increasing pressure. The pressure was recorded (in grams) when the animal first vocalized or made a vigorous attempt to remove the paw. It was determined to baseline threshold of the untreated paw. (average: 80-110 g). After it the animals were treated with carrageenan. After the treatment the edema and the threshold were checked in a given times. […] (Average of inflammation induced pain threshold was 20-25 g, this means 65-80% decrease related to the baseline.)
1 hour after the CA injection (100 μl of 2% solution) the animals were treated with test compounds and valdecoxib (10-10 mg/kg p.o.). […]
The chronic phase of the inflammantion and the decreasing of the threshold were induced by higher dose of CA. Inflammation induced threshold decreasing was measured 24 hours after the CA injection (150 μl of 2% solution). ) After it the animals were treated with test compounds and valdecoxib (30-30 mg/kg p.o.). Change in the threshold was checked at 1 h, 2 h, and 3 h following drug administration. In both model used control groups were treated orally only with solvents at the time of treatments. In both protocol the effects of the test compounds were calculated in percentage reversal of mechanical hiperalgesia: [formula] • T3h: In acute model, the threshold in the control group at 3 h after the CA injection (in gram) • T24h: In chronic model, the threshold in the control group at 24 h after the CA injection (in gram) • T0h: The threshold before the CA injection (in gram) • TXh In acute model, at 3h after the CA injection • TXh=In chronic model, at 25 h, 26 h, 27 h after the CA injection

In test [2] the test system is carrageenan-induced foot paw edema. Briefly: Carrageenan-induced rat foot paw edema assay. Format: in vivo, male Wistar rats. The note with it: for ED30 of edema inhibition: p.o. The method, then:
The edema was induced in male Wistar rats (140-150 g) by subcutaneous injection of carrageenan (50 μl of 1% suspension) into the right hind paw. The formed inflammation was measured with plethysmometer (Ugo Basile, type: 7150). The treated paw was placed into the plethysmometer (filled with 0.3% additives in 0.5% saline), the level of the inflammation was detected by the volume of the displaced solution. This volume was compared with the initial preinjection paw volume. Level of the inflammation (ml)=volume after CA treatment (ml)−volume before CA treatment (ml) The inflammation induced in treated group was compared to control group (which was given only vehicle). The sample materials and the solvent were dosed per os via gastro-sonde 1 hour before the CA treatment. The volume of the treated limb was measured at 3h and 5h after CA treatments. The change of the inflammation level was calculated as follows: [formula]

Test [3] deals with inflammatory mechanical allodynia induced by carrageenan. Briefly: Carrageenan-induced inflammatory mechanical allodynia (von Frey). Format: in vivo, male Sprague-Dawley rats. The note with it: 30 mg/kg p.o. On the procedure:
The-threshold of pain of the animals was measured by von Frey apparatus (IITC, type: 1601 C). […] The values were registered in the times of the pick up or raises. During each measurment the threshold was determined at least thrice and the avarage was calculated from the peak values.
Male Sprague-Dawley rats (weighing 250-300 g) were used (n=5-6/group). 100 μl of saline solution of carrageenant (CA) was injected to the middle of the paw. The stimulus threshold was measured after it, and the treatment was completed with gastro-probe per os. The effects of the materials were measured in 30, 60, 90, 120 minutes after the treatments. The effects were compared for control group treatment with vehicle (solution of 2% Tween-80).
The effect was calculated as follows: [formula] where tx=30, 60, 90, 120 min
In the acute pain model the analgesic effects of the valdecoxib and compound of example 1 were considerable with dose of 30 mg/kg p.o. once.

On to “N-hydroxi-4-(3-phenyl-5-methyl-isoxazole-4-yl)-benzenesulfonamide monohydrate [example 1]”, for which the “Analgesic effect in % after p.o. treatment” value amounted to 64.6% in test [1] (2 hours); 40.7% in test [1] (3 hours); 12.3% in test [1] (4 hours); 61.6% in test [3] (30 min.); 57.1% in test [3] (1 hour); 44.5% in test [3] (1.5 hour). Besides, in test [3] (2 hours), the “Analgesic effect in % after p.o. treatment” value is recorded as 41.5%. The “edema inhibition effect %” value in test [2] (0.3 mg/kg p.o., 4 hours after treatment) was found to be 19.5%; in test [2] (0.3 mg/kg p.o., 6 hours after treatment) it was 17.5%; in test [2] (1.0 mg/kg p.o., 4 hours after treatment), 25.2%; in test [2] (1.0 mg/kg p.o., 6 hours after treatment) it was 37.2%; in test [2] (3.0 mg/kg p.o., 4 hours after treatment) it was 33.9%; in test [2] (3.0 mg/kg p.o., 6 hours after treatment) it was 40.4%. Besides, the “edema inhibition effect %” value in test [2] (10.0 mg/kg p.o., 4 hours after treatment) was 40.7%; in test [2] (10.0 mg/kg p.o., 6 hours after treatment), 59.2%. Further, the “ED30 of edema inhibition” value in test [2] (4 hours after treatment) was found to be 1.8 mg/kg; in test [2] (6 hours after treatment), 0.8 mg/kg.
